The values below come from patent US9751837B2, “Kinase inhibitors” (RESPIVERT LIMITED, priority 2014, dated 2017).

Series [1] addresses human ether a go-go (hERG) channel (Homo sapiens (Human), UniProt Q12809). Nature of the series: hERG inhibition, IonWorks patch clamp electrophysiology. The following applies: IonWorks patch clamp. The class given is cell-based. The procedure: (§1) Compounds of the invention were tested for inhibition of the human ether a go-go (hERG) channel using IonWorks™ patch clamp electrophysiology at Essen Bioscience (Welwyn Garden City, England).

Series [2] deals with hERG (Homo sapiens (Human), UniProt Q12809). The description is as above. The class given is cell-based. The following applies: human, hERG, read-out: % Inhibition at Top Concentration. The procedure:
as §1
On the technique in general: Block of hERG is tested as a sign of cardiac risk.

Series [3] deals with GSK 3α (Homo sapiens (Human), UniProt P49840). Nature of the series: GSK 3α enzyme inhibition (Method 2), Z-LYTE FRET. The class given is biochemical. The following applies: read-out: IC50 Values for Enzyme Inhibition GSK3α. In short, it runs like this:
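GSK3-α (500 ng/mL stock) was preincubated with compound at RT for 2 hr (Method 1; 4-0.004 μg/mL stocks) or 105 min (Method 2; 10-0.01 μg/mL stocks). The Z-LYTE FRET peptide (8 μM stock) and ATP (40 μM stock) were then reacted for 1 hr, followed by 1 hr protease development. Phosphorylation was read as the coumarin/fluorescein emission ratio.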

The nature of series [4]: Stability of pharmaceutical formulations (HPLC). In kind it is physicochemical. The following applies: 1 mg/mL solution; for Purity (%) at week n = 4: 4 weeks. The procedure: The samples were sonicated to achieve clear solutions having the following properties: Osmolality (mOsm/kg): 310 (Na), 314 (HCl); pH: 7.00 (Na), 7.05 (HCl). 0.5 mL of the stock solutions were diluted to 1 mL with 20% DMSO in water & injected for purity analysis by HPLC. The remaining stock solutions were then split into aliquots of 0.5 mL in HPLC vials, and stored at various conditions in duplicate. Samples were stored at 5 and 25° C., before being analysed by HPLC at 1, 2 and 4 weeks. Separate samples were stored at 40° C. and analysed at 4 weeks.

A short description of series [5]: Solubility in fasted-state simulated colonic fluid (FaSSCoF) at pH 6.5. In kind it is physicochemical. The following applies: 25 °C, pH 6.5, fassgf or other biorelevant, thermodynamic from solid. In short, it runs like this: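 Compounds were suspended at up to 2-10 mg/mL in pH 6.5 Tris/maleate FaSSCoF containing a five-bile-acid mixture, phosphatidylcholine, palmitic acid and BSA. After 24 h equilibration at 25° C the suspension was filtered and the filtrate quantified by HPLC peak area against a standard.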

In series [6] the target is B-Raf (Homo sapiens (Human), UniProt P15056). Nature of the series: KINOMEscan binding of B-Raf to its standard ligand. An excerpt: (§2) These assays may be conducted by DiscoverX (formerly Ambit; San Diego, Calif.).
Series [7] has as its target B-Raf (V600E) (Homo sapiens (Human), UniProt P15056, V600E). Nature of the series: KINOMEscan binding of B-Raf (V600E) to its standard ligand.
Description: as §2

For series [8], the system named is non-mutant kinases. Nature of the series: KinomeScan Selectivity Scores. In kind it is binding. The following applies: for KinomeScan Selectivity Score S(1): (non-mutant kinases with % Ctrl <1)/(non-mutant kinases tested); for KinomeScan Selectivity Score S(10): (non-mutant kinases with % Ctrl <10)/(non-mutant kinases tested).
Description: as §2

Series [9] is described as follows: Pharmacokinetics and total colon distribution after single oral administration. The class given is in vivo, male C57BL/6 mice. The following applies: male, C57BL/6, mouse, mice, oral 5 mg/kg. The procedure: Studies were conducted by Sai Life Sciences (Hinjewadi, Pune, India) to investigate the systemic pharmacokinetics and total colon tissue distribution of compounds of the invention. In particular, pharmacokinetic studies were carried out in male C57BL/6 mice following a single oral administration of the compound.

Series [10] deals with Jurkat cells. Nature of the series: Cell cytotoxicity assay (r). In kind it is cell-based, human. The following applies: 24 hours. The gist of the method:
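Jurkat cells (1×10^5/well, RPMI + 10% FBS) exposed to compound at 20, 5 or 1 μg/mL final (1.0% DMSO control) for 24 h at 37° C., 5% CO2. Then stained with 7.5 μg/mL propidium iodide for 15 min. % viability = PI-negative cells by flow cytometry, normalized to DMSO.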

[11] abbreviates: pH 6.5 FaSSCoF Solubility (mg/mL) Run 1.
The mark [12] stands for this setting: pH 6.5 FaSSCoF Solubility (mg/mL) Run 2.
The mark [13] stands for this setting: blood, measured cpd = dosed cpd (19, 47 as Na salt), read-out: Mean blood concentration.
Where [14] appears, read: total colon tissue, measured cpd = dosed cpd (1, 19, 47 as Na salt, 44 as NH4+ salt), read-out: total colon level.
[15] abbreviates: total colon, measured cpd = dosed cpd (1, 19, 47 as Na salt, 44 as NH4+ salt), read-out: total colon level.

Values after ≈ are worked out from the molar mass of the structure shown. Where a name gives a salt, the structure may show the parent alone. Read-outs that look alike come from different tables or passages of the source.

Sequence of human ether a go-go (hERG) channel (Q12809 whole entry): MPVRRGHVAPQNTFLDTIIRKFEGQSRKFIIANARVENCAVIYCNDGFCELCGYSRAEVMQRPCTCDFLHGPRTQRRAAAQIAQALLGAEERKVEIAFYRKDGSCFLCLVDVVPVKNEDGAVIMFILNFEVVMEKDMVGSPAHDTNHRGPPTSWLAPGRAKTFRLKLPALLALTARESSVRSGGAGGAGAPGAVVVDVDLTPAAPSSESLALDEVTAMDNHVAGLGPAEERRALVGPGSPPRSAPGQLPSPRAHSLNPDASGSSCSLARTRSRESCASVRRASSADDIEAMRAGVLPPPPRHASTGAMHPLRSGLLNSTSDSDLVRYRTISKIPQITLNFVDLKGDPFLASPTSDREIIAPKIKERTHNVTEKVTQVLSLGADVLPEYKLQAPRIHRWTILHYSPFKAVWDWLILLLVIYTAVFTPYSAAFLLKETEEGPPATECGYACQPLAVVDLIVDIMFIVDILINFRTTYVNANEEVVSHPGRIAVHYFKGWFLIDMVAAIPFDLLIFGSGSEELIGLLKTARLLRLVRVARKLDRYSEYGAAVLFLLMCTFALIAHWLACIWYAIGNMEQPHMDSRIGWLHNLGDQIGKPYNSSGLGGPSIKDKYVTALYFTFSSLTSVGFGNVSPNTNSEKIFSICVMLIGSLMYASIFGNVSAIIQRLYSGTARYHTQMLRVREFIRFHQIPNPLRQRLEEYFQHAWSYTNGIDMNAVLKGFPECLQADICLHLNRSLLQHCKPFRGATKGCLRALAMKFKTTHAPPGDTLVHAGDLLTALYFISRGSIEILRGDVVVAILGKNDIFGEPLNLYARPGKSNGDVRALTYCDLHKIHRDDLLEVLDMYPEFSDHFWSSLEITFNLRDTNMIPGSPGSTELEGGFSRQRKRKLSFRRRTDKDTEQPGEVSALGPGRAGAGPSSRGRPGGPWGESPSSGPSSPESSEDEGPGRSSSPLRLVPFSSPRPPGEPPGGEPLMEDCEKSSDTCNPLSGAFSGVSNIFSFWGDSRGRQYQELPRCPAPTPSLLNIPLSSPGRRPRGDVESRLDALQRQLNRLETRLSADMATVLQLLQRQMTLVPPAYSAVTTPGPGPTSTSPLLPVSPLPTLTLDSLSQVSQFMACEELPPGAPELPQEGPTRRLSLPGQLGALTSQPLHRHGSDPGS
Sequence of hERG (Q12809 whole entry): as above
Sequence of B-Raf (P15056 whole entry): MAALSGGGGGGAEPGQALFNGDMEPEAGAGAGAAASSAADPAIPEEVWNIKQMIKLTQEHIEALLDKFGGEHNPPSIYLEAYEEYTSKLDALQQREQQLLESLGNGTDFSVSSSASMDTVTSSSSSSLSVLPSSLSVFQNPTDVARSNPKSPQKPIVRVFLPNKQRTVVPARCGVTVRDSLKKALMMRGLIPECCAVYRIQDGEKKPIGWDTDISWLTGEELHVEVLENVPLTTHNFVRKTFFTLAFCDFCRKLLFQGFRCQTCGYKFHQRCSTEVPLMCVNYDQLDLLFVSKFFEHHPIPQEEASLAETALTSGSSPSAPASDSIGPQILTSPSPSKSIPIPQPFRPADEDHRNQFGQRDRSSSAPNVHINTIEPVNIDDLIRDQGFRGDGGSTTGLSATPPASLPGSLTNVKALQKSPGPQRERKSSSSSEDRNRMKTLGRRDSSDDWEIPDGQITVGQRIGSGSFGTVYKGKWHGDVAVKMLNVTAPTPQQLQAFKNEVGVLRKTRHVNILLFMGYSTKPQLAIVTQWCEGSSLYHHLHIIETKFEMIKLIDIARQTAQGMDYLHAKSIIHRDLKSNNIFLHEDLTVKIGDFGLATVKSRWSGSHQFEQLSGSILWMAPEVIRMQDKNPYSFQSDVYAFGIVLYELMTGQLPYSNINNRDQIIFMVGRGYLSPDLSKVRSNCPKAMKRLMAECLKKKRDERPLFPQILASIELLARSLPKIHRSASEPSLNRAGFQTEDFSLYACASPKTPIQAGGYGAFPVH
Sequence of B-Raf (V600E) (P15056 whole entry V600E): as the sequence (P15056 whole entry) above, with V600E counted along it
Sequence of GSK 3α (P49840 whole entry): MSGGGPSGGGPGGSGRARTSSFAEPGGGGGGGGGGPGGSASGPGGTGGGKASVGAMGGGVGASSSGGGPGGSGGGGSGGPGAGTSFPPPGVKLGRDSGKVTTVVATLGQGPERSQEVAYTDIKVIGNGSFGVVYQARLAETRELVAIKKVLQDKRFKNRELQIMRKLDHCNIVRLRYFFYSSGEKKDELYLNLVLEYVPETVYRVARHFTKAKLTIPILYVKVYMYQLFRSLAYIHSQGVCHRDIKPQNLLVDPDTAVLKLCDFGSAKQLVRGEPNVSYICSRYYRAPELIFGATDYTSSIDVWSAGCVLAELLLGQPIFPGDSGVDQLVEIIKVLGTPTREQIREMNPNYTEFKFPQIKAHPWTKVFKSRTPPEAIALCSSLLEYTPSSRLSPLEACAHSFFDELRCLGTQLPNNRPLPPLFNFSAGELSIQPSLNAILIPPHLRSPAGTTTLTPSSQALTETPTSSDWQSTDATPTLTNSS

Turning to `COc1cc(Nc2cc(Oc3ccc(NC(=O)Nc4cc(C(C)(C)C)cc(NS(C)(=O)=O)c4OC)c4ccccc34)ccn2)ccc1C(=O)NC1CCN(C)CC1` [17(j), 4-[[4-[[4-[[5-tert-butyl-3-(methanesulfonamido)-2-methoxy-phenyl]carbamoylamino]-1-naphthyl]oxy]-2-pyridyl]amino]-2-methoxy-N-(1-methyl-4-piperidyl)benzamide], the values for the IC50 in [1] and in series [3] were greater than 3.3 µM and 2 µM, respectively. The inhibition at 3 µM in [2] (3 μM) stood at 7%.

Consider `COc1cc(Nc2cc(Oc3ccc(NC(=O)Nc4cc(C(C)(C)C)cc(NS(C)(=O)=O)c4OC)c4ccccc34)ccn2)ccc1C(=O)O.Cl` [Example 1, hydrochloride salt], for which the “Purity (%) at week n = 2” value in series [4] (stored at 5° C., 2 weeks) worked out at 98.0%. Moreover, the “Purity (%) at week n = 4” value in series [4] (stored at 5° C.) amounted to 98.0%. Further, the “Purity (%) at week n = 1” value in series [4] (stored at 25° C., 1 week) worked out at 98.0%.

In the case of `COc1cc(Nc2cc(Oc3ccc(NC(=O)Nc4cc(C(C)(C)C)cc(NS(C)(=O)=O)c4OC)c4ccccc34)ccn2)ccc1C(=O)O` [Example 1, sodium salt], the “Purity (%) at week n = 4” value in series [4] (stored at 40° C.) stood at 76.0%.

Take `COc1cc(Nc2cc(Oc3ccc(NC(=O)Nc4cc(C(C)(C)C)cc(NS(C)(=O)=O)c4OC)c4ccccc34)ccn2)cc(OC)c1C(=O)NCCOCCOCCO` [Example 36, 4-((4-((4-(3-(5-(tert-butyl)-2-methoxy-3-(methylsulfonamido)phenyl)ureido)naphthalen-1-yl)oxy)pyridin-2-yl)amino)-N-(2-(2-(2-hydroxyethoxy)ethoxy)ethyl)-2,6-dimethoxybenzamide]: the solubility thermodynamic at 24 h in series [5] (setting [11]) and in series [5] (setting [12]) was 0.006 mg/mL (≈ 6.97 µM) in each case. In addition, the IC50 – broadly, the midpoint of a concentration-inhibition curve – in series [1] was greater than 11 µM. For the same compound, the inhibition at 11 µM in series [2] turned out to be 24%. Also, in [6], the “effect on the binding of B-Raf to its standard ligand” value is “did not have any significant effect”. In addition, the “effect on the binding of B-Raf (V600E) to its standard ligand” value in [7] is “did not have any significant effect”. In addition, the “KinomeScan Selectivity Score S(1)” value is given as 0.002 in series [8] (50 nM) and 0.079 in series [8] (500 nM). The “KinomeScan Selectivity Score S(10)” value in series [8] (50 nM) stood at 0.050.

In the case of `CCOP(C)(=O)c1ccc(Nc2cc(Oc3ccc(NC(=O)Nc4cc(C(C)(C)C)cc(NS(C)(=O)=O)c4OC)c4ccccc34)ccn2)cc1OC` (stereo not drawn) [Example 43, ethyl (4-((4-((4-(3-(5-(tert-butyl)-2-methoxy-3-(methylsulfonamido)phenyl)-ureido)naphthalen-1-yl)oxy)pyridin-2-yl)amino)-2-methoxyphenyl)(methyl)phosphinate], the solubility thermodynamic at 24 h in series [5] (FaSSCoF pH 6.5, 25° C., 24 h, Run 1, read-out: pH 6.5 FaSSCoF Solubility (mg/mL) Run 1) was 0.003 mg/mL (≈ 3.94 µM); in series [5] (FaSSCoF pH 6.5, 25° C., 24 h, Run 2, read-out: pH 6.5 FaSSCoF Solubility (mg/mL) Run 2), 0.003 mg/mL (≈ 3.94 µM). The IC50 in [1] was greater than 11 µM. Further, the inhibition at 11 µM in [2] was 13%.

As to `COc1cc(Nc2cc(Oc3ccc(NC(=O)Nc4cc(C(C)(C)C)cc(NS(C)(=O)=O)c4OC)c4ccccc34)ccn2)cc(OC)c1C(=O)NCCOCCOCCOP(=O)(O)O` [Example 47, 2-(2-(2-(4-((4-((4-(3-(5-(tert-butyl)-2-methoxy-3-(methylsulfonamido)phenyl)ureido)-naphthalen-1-yl)oxy)pyridin-2-yl)amino)-2,6-dimethoxybenzamido)ethoxy)ethoxy)ethyl dihydrogen phosphate], in series [9] (setting [13]), the concentration at 0.5 h stood at 0 ng/mL, the concentration at 1 h turned out to be 0 ng/mL, the concentration at 2 h was 0 ng/mL and the concentration at 4 h worked out at 0 ng/mL. In [9] (setting [13]), the concentration at 6 h is 0 ng/mL, the concentration at 8 h was 0 ng/mL, the concentration at 12 h is 0 ng/mL and the concentration at 24 h was 0 ng/mL. In series [9] (setting [14]), the concentration at 2 h amounted to 0 ng/g, the concentration at 4 h is 0 ng/g, the concentration at 6 h stood at 0 ng/g and the concentration at 8 h was found to be 0 ng/g. Further, the concentration at 12 h in series [9] (setting [14]) came to 0 ng/g. For the same compound, in series [9] (setting [15]), the concentration at 0.5 h is 0 ng/g, the concentration at 1 h came to 0 ng/g and the concentration at 24 h was found to be 0 ng/g. Further, the IC50 in series [1] is greater than 11 µM. Also, in [2], the inhibition at 11 µM turned out to be 19%. Also, the “% Viability at 5 μg/mL” value in series [10] (5 μg/mL) is 96.0%. In addition, the “effect on the binding of B-Raf to its standard ligand” value in series [6] is on record as “did not have any significant effect”. Besides, in [7], the “effect on the binding of B-Raf (V600E) to its standard ligand” value is given as “did not have any significant effect”. Moreover, in series [8] (50 nM), the “KinomeScan Selectivity Score S(10)” value was found to be 0.042. The “KinomeScan Selectivity Score S(1)” value in series [8] (500 nM) stood at 0.074.

For `COc1cc(Nc2cc(Oc3ccc(NC(=O)Nc4cc(C(C)(C)C)cc(N(CCO)S(C)(=O)=O)c4OC)c4ccccc34)ccn2)ccc1C(=O)NCCN1CC[S+]([O-])CC1` [Example 48, 4-((4-((4-(3-(5-(tert-Butyl)-3-(N-(2-hydroxyethyl)methylsulfonamido)-2-methoxyphenyl)-ureido)naphthalen-1-yl)oxy)pyridin-2-yl)amino)-2-methoxy-N-(2-(1-oxidothiomorpholino)-ethyl)benzamide], the solubility thermodynamic at 24 h is 0.011 mg/mL (≈ 12.4 µM) in series [5] (setting [11]) and 0.01 mg/mL (≈ 11.3 µM) in [5] (setting [12]). The compound further yielded an IC50 in [1] greater than 11 µM. Also, the inhibition at 11 µM in series [2] is -6%. For the same compound, in series [10] (1 μg/mL), the “% Viability at 1 μg/mL” value worked out at 89.0%.
